# Test results as given in US11700870B2, “Use of tri- and tetra-saccharides as taste modulators” (Tate & Lyle Solutions USA LLC, priority 2016, dated 2023).
# Legend:
# panelists [1] = assay: Sweetness rating against sucrose SEV reference solutions; format: in vivo, human; conditions: for sweetness equivalence, as % solution of sucrose: 10% solution of the saccharide
# Experimental: (§1) Additional sensory testing was carried out in accordance with the following procedure. The general framework for the sensory testing was to compare various concentrations of steviol glycoside (rebaudioside A) ranging from 100 ppm to as high as 2000 ppm at intervals spaced to characterize an adequate dose response. Due to known carryover effects, products were served as no more than two products per day, generally served as one of the following pairs: 100 ppm/250 ppm; 500 ppm/1000 ppm; 750 ppm/1500 ppm; 1000 ppm/2000 ppm. The products were not served counterbalanced, but were instead served in ascending concentration to allow for cleaner reads on both data points. The solutions were served in 2 ounce soufflé cups coded with 3-digit codes at room temperature. Store-purchased distilled water and unsalted crackers were available for the panelists to clear their palates before and during testing. Each daily study targeted 30 persons, though at times as fewer panelists were tested due to exclusionary requirements (i.e., those who are lactating, pregnant, on medication, etc., begin the study but then drop out during the study).
# The study was designed as a rating study using an anchored scale of references of sucrose solutions in neutral pH water. In this study, panelists received a series of reference samples labeled and identified with their SEV equivalence. The range exceeded the expected sweetness of the test sample and panelists rated the sweetness using a 15-pt maximum that exceeds the expected sweetness of the test sample.
# Because one cannot predict the sensitivities of all individuals effectively prior to testing, a broader range of references was used. Specifically, SEV references were as follows (the percentages stated are in weight %):
# (§2) Panelists first were asked to familiarize themselves with the intensity of each reference solution and its corresponding SEV. Next, they waited 30 sec and cleansed their palate with water and a cracker. Then panelists were asked to taste the test sample (identified by a random 3-digit code). Then they were instructed to drag a marker on a line scale to match the sweetness of their test samples relative to the references noted above, with the scale ranging from 0 to 15. The value they selected was shown above the line scale so panelists were aware of what values they were indicating. Once this was complete, inquiries related to the liking of the test sample, the similarity of the taste of the test sample to sugar, the intensity of any off flavors, and the identity of any off flavors were asked.
# panelists [2] = assay: Off flavor intensity rating across the rebaudioside A dose response; format: in vivo, human
# Experimental: as §1
# as §2, with “asked. […]” for “asked.”
# panelists [3] = assay: Comparative bitterness of 1000 ppm rebaudioside A 97 solutions, three panelists; format: in vivo, human; conditions: for masking the bitterness of rebaudioside A 97: conclusion from the panel, 10% with 1000 ppm rebaudioside A 97
# Experimental: Three aqueous solutions of 1000 ppm rebaudioside A 97 (rebaudioside A having a purity of 97%) were prepared with 10% maltotriose, 2.5% sucrose, or no additional component. The sweetness of a 10% maltotriose solution is approximately equal to a 2.5% sucrose solution. Three panelists were asked to assess the samples for comparative bitterness and were instructed to rinse with water between samples in order to mute any carry-over effects. […] One panelist found the sucrose-containing solution to be the most bitter. […] The panelist that reported the sucrose-containing solution to be less bitter than the maltotriose containing solution, self-identified as an individual not particularly sensitive to the bitterness of rebaudioside A 97. Therefore, the bitterness masking effect of maltotriose may be more plainly observed in those more sensitive to the bitterness of rebaudioside A 97.
# Three aqueous solutions of 1000 ppm rebaudioside A 97 were prepared with 10% maltotetraose-enriched syrup (containing 60% maltotetraose on a dry weight basis with other carbohydrates including maltotriose, maltose and glucose), 2.5% sucrose, or no additional component. As a note, the sweetness of a 10% maltotetraose solution is roughly equal to a 2.5% sucrose solution. Three panelists were asked to assess the samples for comparative bitterness and were instructed to rinse with water between samples in order to mute any carry-over effects. […] Therefore, the bitterness masking effect of maltotetraose may be more plainly observed in those sensitive to the bitterness of rebaudioside A 97.
# [4] = as compared to sucrose; cited from earlier work
# [5] = on a weight basis; cited from earlier work
# human sense of taste = assay: Taste threshold concentration in aqueous solution; format: in vivo; conditions: neutral aqueous solution containing no other ingredients
# Description: As used herein, the term “taste threshold concentration associated with the tri-/tetra-saccharide(s)” means the minimum concentration at which a person can still taste the tri-/tetra-saccharide(s) by the human sense of taste, in particular in an aqueous solution containing no ingredient other than water and the tri-/tetra-saccharide(s). This taste threshold concentration may vary somewhat from person to person. For example, melezitose has a taste threshold concentration of about 2.5% by weight in a neutral aqueous solution containing no other ingredients.
# [6] = dissolves in 100 g water at 21° C.; cited from earlier work
# [7] = recent studies, Food Chemistry 132 (2012) 1951-1958; cited from earlier work
# S. mutans = conditions: recent studies, Food Chemistry 132 (2012) 1951-1958; cited from earlier work
molecule,measurement,setting,value
"OC[C@H]1O[C@@](CO)(O[C@H]2O[C@H](CO)[C@@H](O)[C@H](O)[C@H]2O)[C@@H](O)[C@@H]1O [sucrose, reference compound]",increase of sweet taste perception of the Reb A dose response curve,"panelists [1]; 2.5% solution of sucrose, FIG. 1",about 2.5 sweetness units
same,reduction of off flavors of Reb A,"panelists [2]; 2.5% solution of sucrose, FIG. 4",reduced somewhat
same,comparative bitterness versus neat rebaudioside A solution,"panelists [3]; 1000 ppm rebaudioside A 97 with 2.5% sucrose, two of three panelists (Example 3)",equal in bitterness to the neat rebaudioside A solution
OC[C@H]1O[C@H](O[C@H]2[C@H](O)[C@@H](O)[C@@H](O[C@H]3[C@H](O)[C@@H](O)[C@@H](O[C@H]4[C@H](O)[C@@H](O)C(O)O[C@@H]4CO)O[C@@H]3CO)O[C@@H]2CO)[C@H](O)[C@@H](O)[C@@H]1O (some centres unmarked) [maltotetraose],"sweetness equivalence, as % solution of sucrose",panelists [1],~2.5%
same,masking the bitterness of rebaudioside A 97,panelists [3],effective
maltotriose,"sweetness equivalence, as % solution of sucrose",panelists [1],~2.5%
same,comparative bitterness versus rebaudioside A control,panelists [3]; 1000 ppm rebaudioside A 97 in water with 10% test saccharide,less bitter than the rebaudioside A control
same,panelists who found the sample the least bitter of the three samples,"panelists [3]; 1000 ppm rebaudioside A 97 with 10% test saccharide, versus 2.5% sucrose and no additional component, three panelists",Two of the three
same,panelists who found the sample less bitter than the rebaudioside A control,"panelists [3]; 1000 ppm rebaudioside A 97 with 10% test saccharide, three panelists",All three
same,masking the bitterness of rebaudioside A 97,panelists [3],effective
"OC[C@H]1O[C@H](OC[C@H]2O[C@H](OC[C@H]3O[C@H](O[C@]4(CO)O[C@H](CO)[C@@H](O)[C@@H]4O)[C@H](O)[C@@H](O)[C@@H]3O)[C@H](O)[C@@H](O)[C@H]2O)[C@H](O)[C@@H](O)[C@H]1O [Stachyose, stachyose]",degree of digestibility,[4],low
same,sweetness relative to sucrose,[5],approximately 28%
"OC[C@H]1O[C@@](CO)(O[C@H]2O[C@H](CO)[C@@H](O)[C@H](O)[C@H]2O)[C@@H](O[C@H]2O[C@H](CO)[C@@H](O)[C@H](O)[C@H]2O)[C@@H]1O [melezitose, α-D-glucose (1-3)-β-D-fructose (2-1)-α-D-glucose]","sweetness equivalence, as % solution of sugar (sucrose)",panelists [1]; 5% solution of the saccharide,~1%
same,"sweetness equivalence, as % solution of sucrose",panelists [1],2.5%
same,reduction of off-tastes of Reb A,"panelists [2]; 5% solution of melezitose (subsweet), FIG. 5",clear impact on the reduction of off-tastes
same,reduction of off-tastes of Reb A,"panelists [2]; 10% melezitose solution, as sweet as 2.5% sucrose, FIG. 6",dramatic
same,taste threshold concentration,human sense of taste,about 2.5 % by weight
same,solubility in water,[6],26.8 g
same,digestibility by in vitro assay,[7],not to be digestible
same,utilization by S. mutans in dental caries assay,S. mutans,not utilized
